Experimental data published in the NIST ThermoML archive (doi:10.1021/je049895b).

Assay: xn = mol fraction of the nth substance listed
Conditions: 101.33 kPa, Liquid; for viscosity: Capillary tube (Ostwald / Ubbelohde) method

C1CCCC1 [cyclopentane] + COC(=O)OC
Conditions | mass density [kg/m3] | speed of sound [m/s] | viscosity [mPa·s]
293.15 K, x2 = 0 | 744.43 | 1232 | 0.438
293.15 K, x2 = 0.0453 | 755.75 | 1219 | 0.429
293.15 K, x2 = 0.0871 | 766.47 | 1209 | 0.419
293.15 K, x2 = 0.1847 | 792.72 | 1192 | 0.417
293.15 K, x2 = 0.2915 | 823.38 | 1180 | 0.421
293.15 K, x2 = 0.3937 | 854.33 | 1174 | 0.432
293.15 K, x2 = 0.4904 | 884.96 | 1172 | 0.449
293.15 K, x2 = 0.5988 | 920.84 | 1174 | 0.472
293.15 K, x2 = 0.6963 | 954.64 | 1180 | 0.497
293.15 K, x2 = 0.8033 | 993.39 | 1190 | 0.531
293.15 K, x2 = 0.9028 | 1031.4 | 1204 | 0.573
293.15 K, x2 = 0.9532 | 1051.09 | 1212 | 0.601
298.15 K, x2 = 0 | 739.47 | 1206 | 0.415
298.15 K, x2 = 0.0453 | 750.69 | 1193 | 0.406
298.15 K, x2 = 0.0871 | 761.31 | 1184 | 0.397
298.15 K, x2 = 0.1847 | 787.29 | 1168 | 0.396
298.15 K, x2 = 0.2915 | 817.76 | 1156 | 0.398
298.15 K, x2 = 0.3937 | 848.47 | 1150 | 0.408
298.15 K, x2 = 0.4904 | 878.98 | 1148 | 0.422
298.15 K, x2 = 0.5988 | 914.7 | 1151 | 0.444
298.15 K, x2 = 0.6963 | 948.41 | 1157 | 0.468
298.15 K, x2 = 0.8033 | 987.01 | 1168 | 0.5
298.15 K, x2 = 0.9028 | 1024.85 | 1182 | 0.538
298.15 K, x2 = 0.9532 | 1044.57 | 1190 | 0.565
303.15 K, x2 = 0 | 734.47 | 1180 | 0.394
303.15 K, x2 = 0.0453 | 745.58 | 1168 | 0.385
303.15 K, x2 = 0.0871 | 756.09 | 1158 | 0.377
303.15 K, x2 = 0.1847 | 781.98 | 1143 | 0.374
303.15 K, x2 = 0.2915 | 812.07 | 1131 | 0.377
303.15 K, x2 = 0.3937 | 842.65 | 1125 | 0.386
303.15 K, x2 = 0.4904 | 872.96 | 1124 | 0.4
303.15 K, x2 = 0.5988 | 908.54 | 1127 | 0.419
303.15 K, x2 = 0.6963 | 942.13 | 1134 | 0.441
303.15 K, x2 = 0.8033 | 980.64 | 1145 | 0.472
303.15 K, x2 = 0.9028 | 1018.17 | 1160 | 0.507
303.15 K, x2 = 0.9532 | 1038.01 | 1168 | 0.528
308.15 K, x2 = 0 | 729.42 | 1154 | 0.374
308.15 K, x2 = 0.0453 | 740.41 | 1142 | 0.366
308.15 K, x2 = 0.0871 | 750.83 | 1133 | 0.358
308.15 K, x2 = 0.1847 | 776.38 | 1118 | 0.355
308.15 K, x2 = 0.2915 | 806.36 | 1107 | 0.357
308.15 K, x2 = 0.3937 | 836.73 | 1102 | 0.366
308.15 K, x2 = 0.4904 | 866.91 | 1101 | 0.379
308.15 K, x2 = 0.5988 | 902.34 | 1105 | 0.397
308.15 K, x2 = 0.6963 | 935.82 | 1111 | 0.418
308.15 K, x2 = 0.8033 | 974.2 | 1123 | 0.446
308.15 K, x2 = 0.9028 | 1011.88 | 1138 | 0.478
308.15 K, x2 = 0.9532 | 1031.41 | 1146 | 0.501
313.15 K, x2 = 0 | 724.32 | 1129 | 0.355
313.15 K, x2 = 0.0453 | 735.2 | 1117 | 0.348
313.15 K, x2 = 0.0871 | 745.51 | 1108 | 0.341
313.15 K, x2 = 0.1847 | 770.82 | 1093 | 0.338
313.15 K, x2 = 0.2915 | 800.54 | 1083 | 0.338
313.15 K, x2 = 0.3937 | 830.73 | 1078 | 0.346
313.15 K, x2 = 0.4904 | 860.7 | 1078 | 0.358
313.15 K, x2 = 0.5988 | 896.1 | 1082 | 0.377
313.15 K, x2 = 0.6963 | 929.45 | 1089 | 0.397
313.15 K, x2 = 0.8033 | 967.7 | 1101 | 0.424
313.15 K, x2 = 0.9028 | 1005.28 | 1116 | 0.454
313.15 K, x2 = 0.9532 | 1024.79 | 1125 | 0.472

CCOC(=O)OCC [diethyl carbonate] + CC1CCCCC1
Conditions | speed of sound, 293.15 K [m/s] | speed of sound, 298.15 K [m/s] | speed of sound, 303.15 K [m/s] | speed of sound, 308.15 K [m/s] | speed of sound, 313.15 K [m/s] | viscosity, 293.15 K [mPa·s] | viscosity, 298.15 K [mPa·s] | viscosity, 303.15 K [mPa·s] | viscosity, 308.15 K [mPa·s] | viscosity, 313.15 K [mPa·s]
x1 = 0.0473 | 1229 | 1207 | 1185 | 1164 | 1142 | 0.709 | 0.662 | 0.621 | 0.583 | 0.548
x1 = 0.0978 | 1222 | 1201 | 1179 | 1157 | 1136 | 0.692 | 0.647 | 0.607 | 0.57 | 0.537
x1 = 0.1985 | 1211 | 1189 | 1168 | 1146 | 1125 | 0.678 | 0.633 | 0.593 | 0.558 | 0.525
x1 = 0.2968 | 1203 | 1181 | 1160 | 1138 | 1117 | 0.67 | 0.627 | 0.588 | 0.553 | 0.521
x1 = 0.3924 | 1196 | 1175 | 1154 | 1132 | 1111 | 0.672 | 0.628 | 0.589 | 0.554 | 0.522
x1 = 0.4993 | 1192 | 1171 | 1149 | 1128 | 1107 | 0.68 | 0.635 | 0.596 | 0.561 | 0.529
x1 = 0.5999 | 1189 | 1168 | 1147 | 1126 | 1105 | 0.695 | 0.649 | 0.609 | 0.572 | 0.539
x1 = 0.6985 | 1189 | 1168 | 1147 | 1126 | 1106 | 0.709 | 0.663 | 0.622 | 0.584 | 0.55
x1 = 0.7988 | 1191 | 1170 | 1149 | 1128 | 1108 | 0.732 | 0.684 | 0.642 | 0.603 | 0.568
x1 = 0.8996 | 1194 | 1173 | 1152 | 1132 | 1112 | 0.762 | 0.711 | 0.666 | 0.625 | 0.588
x1 = 0.9509 | 1196 | 1175 | 1155 | 1134 | 1114 | 0.787 | 0.735 | 0.687 | 0.645 | 0.607
x1 = 1 | 1198 | 1177 | 1157 | 1136 | 1116 | 0.809 | 0.75 | 0.702 | 0.658 | 0.618
